# Experimental data from patent US20140329904A1, “INCREASING THE BIOAVAILABILITY OF HYDROXYCINNAMIC ACIDS” (NESTEC S.A., priority 2011, published 2014).
# Where two headings read alike, the source gives them in different places.
# Assays:
# [1] = tested on: sulfotransferases (SULTs) in human intestinal S9; test: Inhibition of hydroxycinnamic acid sulfation by flavonoids in human intestinal S9; assay type: biochemical; conditions: human intestinal S9 0.4 mg/mL, 30 min, 37° C.
# Protocol: (§1) The incubation mixture, in a final volume of 50 μL, consisted of 100 mM potassium phosphate buffer (pH 7.4), with 100 μM vitamin C, 100 μM PAPS and 1 mM DTT. Human liver S9 and intestinal S9 homogenates were used at 1 mg/mL and 0.4 mg/mL, respectively. The flavonoids were added from a 5 mM stock solution dissolved in DMSO, with final DMSO concentration equalized to 0.2%. Quercetin-3-glucuronide, quercetin-7-glucuronide and quercetin-3′-sulfate were dissolved in water. After a 15 min pre-incubation period, the reaction was initiated by adding 10 μM cinnamic acids and 25 μM dihydrocinnamic acids from a 50 mM stock solution in DMSO. To inhibit hydrolysis of quercetin glucuronides, in some analyses, 5 mM saccharolactone was added. After 30 min incubation in a 37° C. water bath, the reaction was stopped by addition of 10 μL ice-cold acetonitrile containing 500 mM HCl. Controls were treated under identical condition and consisted of samples with 0.2% DMSO (final concentration) added to the buffer. Samples were stored at −70° C. until analysis.
# (§2) HPLC analyses were carried out using the Agilent 1200 series liquid chromatography system. For the analysis of caffeic acid, ferulic acid, isoferulic acid, dihydroferulic acid and their conjugates, chromatography was performed with a Zorbax XDB-C18 column (4.6×150 mm, 5 μm). The mobile phase consisted of 20 mM ammonium formate, pH 2.8 (A) and methanol (B). For the analysis of caffeic acid and conjugates, samples were eluted at 1 mL/min with 5% to 25% B in 20 min, followed by 80% B in 2 min and back to 5% B for 3 min. For the analysis of ferulic and isoferulic acid and their conjugates, the gradient was from 10% to 20% B in 10 min, to 60% B in 15 min, then set at 80% B for 2 min and back to 10% B for 3 min, at 1 mL/min. Dihydroferulic acid and conjugates analysis was carried out at 1 mL/min, from 10% to 20% B in 15 min, to 60% B in 10 min, up to 80% B for 2 min and finally to 10% B for 3 min. For dihydrocaffeic acid and conjugates, the analyses were performed with a Zorbax XDB-C18 column (4.6×50 mm, 1.8 μm) with 20 mM ammonium formate, pH 4.5 (A) and methanol (B) as the mobile phase. The gradient started at 3% (B) kept for 15 min, followed by an increase to 40% B in 5 min, and then returned to 3% B for 5 min. Samples were centrifuged and 25 μL of the supernatant were injected into the column. UV-detection carried out at 280 nm and 310 nm using photodiode array detector. Caffeic, ferulic and isoferulic acid were quantified at 310 nm, dihydroferulic acid and dihydrocaffeic acid at 280 nm.
# [2] = tested on: sulfotransferases (SULTs) in human liver S9; test: Inhibition of hydroxycinnamic acid sulfation by flavonoids and quercetin conjugates in human liver S9; assay type: biochemical
# Protocol: as §1, §2
# HepG2 cells = test: Inhibition of caffeic acid and ferulic acid sulfation in HepG2 cells; assay type: cell-based, human; conditions: caffeic and ferulic acids 10 μM, 4 h
# Protocol: HepG2 cells (ATCC) were routinely cultured in 75 cm^2 cell culture flasks at 37° C. under a humidified 5% CO2/O2 atmosphere. The culture media consisted of Eagle's Minimum Essential Medium (EMEM) media supplemented with 10% fetal bovine serum (Sigma-Aldrich) and 100 U/ml penicillin-streptomycin. All experiments were performed with HepG2 cells between passages 80 to 95. For metabolic studies, HepG2 cells were seeded into 12-well plates at a cell density of 2×10^5 per well. The cell monolayers were allowed to grow over 96 h before they were used for experiments. Hydroxycinnamic acid metabolism experiments were carried out in serum-free media with 100 μM vitamin C and 1.8 mM CaCl2, adjusted to pH 6.5. Cinnamic acids (10 μM) and dihydrocinnamic acids (25 μM) were added from a 50 mM stock solution in DMSO. […] 0.4 mL of hydroxycinnamic acids, with or without the inhibitors, were added to the HepG2 cells and incubated for 4 h at 37° C. The incubation media were then collected, acidified with 1 mM vitamin C and dried under vacuum. The residue was extracted by sonication for 5 min and vortex for 1 min, first with 500 μL acetonitrile, followed by 500 μL methanol. […]
# HPLC analyses were carried out using the Agilent 1200 series liquid chromatography system. […] Caffeic, ferulic and isoferulic acid were quantified at 310 nm, dihydroferulic acid and dihydrocaffeic acid at 280 nm.
# [3] = 10 μM caffeic acid, read-out: IC50 for the inhibition of sulfation of Caffeic acid
# [4] = 10 μM ferulic acid, read-out: IC50 for the inhibition of sulfation of Ferulic acid
# [5] = human liver S9 1 mg/mL, 10 μM caffeic acid, 30 min, 37° C., flavonoids, read-out: IC50 for the inhibition of sulfation of Caffeic acid
# [6] = human liver S9 1 mg/mL, 10 μM ferulic acid, 30 min, 37° C., flavonoids, read-out: IC50 for the inhibition of sulfation of Ferulic acid
# [7] = liver S9, 10 μM caffeic acid, quercetin conjugates dissolved in water, read-out: IC50 for the inhibition of sulfation of Caffeic acid
# [8] = liver S9, 10 μM ferulic acid, quercetin conjugates dissolved in water, read-out: IC50 for the inhibition of sulfation of Ferulic acid
"IC50 [1, 3]","IC50 [1, 4]","IC50 [2, 5]","IC50 [2, 6]","IC50 [2, 7]","IC50 [2, 8]",SMILES,Inhibitory effect on hydroxycinnamic acids sulfation (HepG2 cells),"Inhibition of sulfation of hydroxycinnamic acid, ranking in words ([2]; liver S9)"
5.8 µM,7 µM,4200 nM,4400 nM,,,Oc1cc(O)c2c(c1)O[C@H](c1ccc(O)c(O)c1)[C@@H](O)C2 [(+)-Catechin],,
7.6 µM,11 µM,7400 nM,7300 nM,,,Oc1cc(O)c2c(c1)O[C@H](c1ccc(O)c(O)c1)[C@H](O)C2 [(−)-Epicatechin],,
0.96 µM,2.3 µM,460 nM,880 nM,,,O=c1cc(-c2ccc(O)cc2)oc2cc(O)cc(O)c12 [Apigenin],,
0.72 µM,2.3 µM,650 nM,620 nM,,,O=c1c(-c2ccc(O)cc2)coc2cc(O)ccc12 [Daidzein],,
0.77 µM,1.5 µM,590 nM,1000 nM,,,O=c1c(-c2ccc(O)cc2)coc2cc(O)cc(O)c12 [Genistein],,
3.5 µM,5.1 µM,4300 nM,5300 nM,,,COc1ccc([C@@H]2CC(=O)c3c(O)cc(O)cc3O2)cc1O [Hesperetin],,
2.5 µM,3.8 µM,920 nM,3900 nM,,,O=c1c(O)c(-c2ccc(O)cc2)oc2cc(O)cc(O)c12 [Kaempferol],,
1.3 µM,3 µM,80 nM,530 nM,,,O=c1cc(-c2ccc(O)c(O)c2)oc2cc(O)cc(O)c12 [Luteolin],inhibitory effect,
0.84 µM,2.3 µM,990 nM,1000 nM,,,O=C(CCc1ccc(O)cc1)c1c(O)cc(O)cc1O [Phloretin],,
,,,,11000 nM,12000 nM,O=C(O)[C@H]1O[C@@H](Oc2c(-c3ccc(O)c(O)c3)oc3cc(O)cc(O)c3c2=O)[C@H](O)[C@@H](O)[C@@H]1O [Quercetin-3-glucuronide],,
,,,,6600 nM,6700 nM,O=c1c(O)c(-c2ccc(O)c(OS(=O)(=O)O)c2)oc2cc(O)cc(O)c12 [Quercetin-3′-sulfate],,
,,,,9600 nM,8000 nM,O=C(O)[C@H]1O[C@@H](Oc2cc(O)c3c(=O)c(O)c(-c4ccc(O)c(O)c4)oc3c2)[C@H](O)[C@@H](O)[C@@H]1O [Quercetin-7-glucuronide],,
4.2 µM,5.2 µM,410 nM,640 nM,,,O=c1c(O)c(-c2ccc(O)c(O)c2)oc2cc(O)cc(O)c12 [Quercetin],inhibitory effect,most effective inhibitors

SMILES,"IC50 [1, 3]","IC50 [1, 4]","IC50 [2, 5]","IC50 [2, 6]","IC50 [2, 7]","IC50 [2, 8]",Inhibitory effect on hydroxycinnamic acids sulfation (HepG2 cells),"Inhibition of sulfation of hydroxycinnamic acid, ranking in words ([2]; liver S9)"
COc1cc(-c2oc3cc(O)cc(O)c3c(=O)c2O)ccc1O [Isorhamnetin],4.4 µM,4.7 µM,2000 nM,3700 nM,,,,
